Data from US7745390B2, “Antimicrobial peptides” (priority 2005, dated 2010).
In brackets after ≈: the same amount, converted by molar mass. Like-named read-outs stand apart in the source and are kept apart here. Square brackets hold non-standard residues; d marks the D form. Ends that are not written are not given here. Peptide text beside a SMILES is read from it.

Columns and labels:
E. coli DH5a = assay type: cell-based
How it was run: (§1)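 Peptides were diluted in 10 mM phosphate buffer, pH 7.2 with 0.03% LB and incubated with bacteria (~5×10^6 CFU/ml) for 3 h at 37 °C in microtiter wells. LB was then added, growth continued overnight, and OD 600 nm was read. MIC is the lowest concentration with no growth; IC50 gives 50% growth versus medium.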

B. cereus [1] = assay type: cell-based
How it was run: as §1

bacteria [2] = experiment: Activity in serum containing media (10% FCS in DMEM or RPMI); assay type: cell-based; details: for active in serum containing media: 10% FCS in DMEM or RPMI
Protocol: (§2) The CFU assay is the “gold standard” for evaluating antibiotics. Briefly, bacteria are grown overnight in rich medium, such as LB, and then diluted and grown in log phase for 2-4 hours. Cultures are set up as above, with the initial culture media being 10 mM phosphate buffer/0.03% LB; DMEM or RPMI; or DMEM or RPMI plus 10% serum (fetal calf, human, or mouse). After various periods of time, but generally 3 hours or less, aliquots are removed, diluted in LB at various dilutions, and plated on LB agar plates. Plates are incubated overnight at 37° C. and counted on an automatic colony counter.
Tests were conducted in low salt concentrations so that active peptide candidates could be identified more readily. It is important for in vivo applications that the present antimicrobial peptides be active in physiological salt concentrations (150 mM) as well as in the presence of other tissue components, such as blood plasma (serum). Serum may contain proteases that destroy peptides; the use of D-amino acids can improve protease resistance. See G12.21. […] Also active were G11.6, G11.26, G11.29, G11.30, G11.34, G11.35, G12.11, G12.19, G12.20 and G12.21. […]

bacteria [3] = experiment: Activity in DMEM and RPMI media (lysis of bacteria); assay type: cell-based; design: key to Active in DMEM: YES: Active in DMEM; a blank means no activity; details: Table 2; tested in DMEM and RPMI
Protocol: as §2
In the column “Active in DMEM”, a blank means no activity. MAP stands for multiple antigenic peptide, where a number of identical peptide chains are synthesized and joined to a common core (like a dendrimer).
The peptides listed in Table 2 were tested in DMEM and RPMI, media that approximate blood and tissue conditions in vivo and those that were active under these conditions are listed in the last column (active in DMEM). […] No peptides that were all L-isomer peptides lysed bacteria in DMEM supplemented with serum.
The hydrophobic moment is a measure of amphipathicity and indicates how well the hydrophobic residues fall on one side of the helix while the hydrophilic residues fall on the opposite side is shown in column 7. This was determined using the Membrane Explorer Program (http://blanco.biomol.uci.edu/mpex/). A high number indicates a high hydrophobic moment. Column 8 again (like Table 2) indicates which of these peptides is active in DMEM.

Salmonella = assay type: cell-based, S. typhimurium
How it was run: as §1

bacterial strains = experiment: organism not typed; assay type: cell-based
Protocol: (§3) Three preferred peptides G11.46, G12.21 and G14.15, discussed above, were further tested for antimicrobial efficacy under various conditions using the 10% FCS/DMEM assay as described under CFU assay. The incubation times with the bacteria and peptide was three hours, at which time the bacteria were diluted and plated on agar. […] The MIC for each compound is highlighted.
Table 9 below repeats some data presented above in Tables 6, 7, and 8.

B. cereus [4] = experiment: CFU assay in 10% FCS/DMEM; assay type: cell-based; details: 3 hrs
Protocol: as §2, §3

[5] = 10 mM phosphate buffer, pH 7.2, 0.03% LB

Compound | E. coli DH5a MIC (E. coli DH5a; DH5a, pH 7.2) [µM] | IC50 (E. coli DH5a; DH5a, pH 7.2) [nM] | B. cereus MIC (B. cereus [1]; pH 7.2) [µM] | IC50 (B. cereus [1]; pH 7.2) [nM] | active in serum containing media (bacteria [2]) | Active in DMEM (bacteria [3]) | IC50 (Salmonella; pH 7.2) [nM] | Salmonella MIC (Salmonella; pH 7.2) [µM] | other results
CSCC[C@H](NC(=O)[C@H](Cc1ccccc1)NC(=O)[C@@H](CCCNC(=N)N)NC(=O)[C@@H](CCCNC(=N)N)NC(=O)[C@H](CO)NC(=O)[C@@H](NC(=O)[C@H](CC(=O)O)NC(=O)[C@H](CCCNC(=N)N)NC(=O)[C@H](Cc1c[nH]c2ccccc12)NC(=O)[C@H](CCCNC(=N)N)NC(=O)[C@H](CO)NC(=O)[C@H](CCCNC(=N)N)NC(=O)CNC(=O)[C@@H](NC(=O)[C@H](CCCNC(=N)N)NC(=O)[C@H](CO)NC(=O)[C@@H](NC(=O)[C@H](CCCNC(=N)N)NC(=O)[C@@H](NC(=O)[C@@H](C)NC(=O)[C@@H](C)NC(=O)[C@H](CCCNC(=N)N)NC(=O)[C@H](CO)NC(=O)[C@@H](NC(=O)[C@H](CO)NC(=O)[C@H](CCCNC(=N)N)NC(=O)[C@@H](N)CCC(N)=O)C(C)C)[C@@H](C)O)C(C)C)[C@@H](C)O)C(C)C)C(=O)N[C@@H](CCCNC(=N)N)C(=O)N[C@@H](CCCNC(=N)N)C(=O)O [Peptide G8.8, QRSVSRaaTRVSRTGRSRWRDVSrrFMRR] (H-QRSVSR[dA][dA]TRVSRTGRSRWRDVS[dR][dR]FMRR-OH; N-terminus and C-terminus assumed) | 0.35 | 210 | 2.5 | 1700 | active | YES | 420 | 0.7 | –
CSCC[C@H](NC(=O)[C@H](Cc1ccccc1)NC(=O)[C@@H](CCCNC(=N)N)NC(=O)[C@@H](CCCNC(=N)N)NC(=O)[C@H](CO)NC(=O)[C@@H](NC(=O)[C@H](CC(=O)O)NC(=O)[C@H](CCCNC(=N)N)NC(=O)[C@H](Cc1c[nH]c2ccccc12)NC(=O)[C@H](CCCNC(=N)N)NC(=O)[C@H](CO)NC(=O)[C@H](CCCNC(=N)N)NC(=O)CNC(=O)[C@@H](NC(=O)[C@H](CCCNC(=N)N)NC(=O)[C@H](CO)NC(=O)[C@@H](NC(=O)[C@H](CCCNC(=N)N)NC(=O)[C@@H](NC(=O)[C@@H]1CCCN1C(=O)[C@@H]1CCCN1C(=O)[C@H](CCCNC(=N)N)NC(=O)[C@H](CO)NC(=O)[C@@H](NC(=O)[C@H](CO)NC(=O)[C@H](CCCNC(=N)N)NC(=O)[C@@H](N)CCC(N)=O)C(C)C)[C@@H](C)O)C(C)C)[C@@H](C)O)C(C)C)C(=O)N[C@@H](CCCNC(=N)N)C(=O)N[C@@H](CCCNC(=N)N)C(=O)O [Peptide G8.11] (H-QRSVSRPPTRVSRTGRSRWRDVS[dR][dR]FMRR-OH; N-terminus and C-terminus assumed) | 0.35 | 210 | 0.75 | 450 | active | YES | 220 | 0.35 | –
RDVSRRFMRRGSRDVSRRFMRRGSRDVSRRFMRR [Peptide G11.26] | 0.7 | 400 | 0.35 | 210 | active | YES | 210 | 0.35 | –
CSCC[C@@H](NC(=O)[C@H](Cc1ccccc1)NC(=O)[C@@H](CCCNC(=N)N)NC(=O)[C@@H](CCCNC(=N)N)NC(=O)[C@H](CO)NC(=O)[C@H](NC(=O)[C@H](CCCNC(=N)N)NC(=O)[C@@H](N)CCCNC(=N)N)C(C)C)C(=O)N[C@@H](CCCNC(=N)N)C(=O)N[C@@H](CCCNC(=N)N)C(=O)O [Peptide G11.35, RRvSrrFmRR] (H-RR[dV]S[dR][dR]F[dM]RR-OH; N-terminus and C-terminus assumed) | 0.7 | 410 | >10 | > 10000 | active | YES | 3250 | 5.7 | –
RRVSRRFMRRYRSRRPRRLV [Peptide G12.11] | 0.75 | 210 | 0.35 | 210 | active | YES | 410 | 0.65 | –
CSCC[C@H](NC(=O)[C@H](Cc1ccccc1)NC(=O)[C@@H](CCCNC(=N)N)NC(=O)[C@@H](CCCNC(=N)N)NC(=O)[C@H](CO)NC(=O)[C@H](NC(=O)[C@@H](CCCNC(=N)N)NC(=O)[C@@H](N)CCCNC(=N)N)C(C)C)C(=O)N[C@H](CCCNC(=N)N)C(=O)N[C@@H](CCCNC(=N)N)C(=O)O [Peptide G11.34, RrvSrrFMrR] (H-R[dR][dV]S[dR][dR]FM[dR]R-OH; N-terminus and C-terminus assumed) | 0.7 | 410 | >10 | > 10000 | active | YES | 1600 | 2.8 | –
RRVSRPPMRRYRSRRPRRLV [Peptide G12.20] | 0.73 | 230 | 0.35 | 210 | active | YES | 420 | 1.4 | –
CRRVSRRFMRRC [G11.29 CYC] | – | – | – | – | active | YES | – | – | E. coli DH5a MIC (E. coli DH5a; [5]): 1.4 µM; IC50 (E. coli DH5a; 10 mM phosphate buffer, pH 7.2, 0.03% LB, read-out: E. coli DH5a IC50): 750 nM; B. cereus MIC (B. cereus [1]; [5]): 1.39 µM; IC50 (B. cereus [1]; 10 mM phosphate buffer, pH 7.2, 0.03% LB, read-out: B. cereus IC50): 890 nM; Salmonella MIC (Salmonella; [5]): 2.8 µM; IC50 (Salmonella; 10 mM phosphate buffer, pH 7.2, 0.03% LB, read-out: Salmonella IC50): 1750 nM
RDVSRRFMRRGSRDVSRRFMRR [Peptide G11.6] | 0.7 | 450 | 2.4 | 890 | active | YES | 890 | 1.4 | –
CN[C@H](CC(C)C)C(=O)N[C@H]1C(=O)N[C@@H](CC(N)=O)C(=O)N[C@H]2C(=O)N[C@H]3C(=O)N[C@H](C(=O)N[C@H](C(=O)O)c4cc(O)cc(O)c4-c4cc3ccc4O)[C@H](O)c3ccc(c(Cl)c3)Oc3cc2cc(c3O[C@@H]2O[C@H](CO)[C@@H](O)[C@H](O)[C@H]2O[C@H]2C[C@](C)(N)[C@H](O)[C@H](C)O2)Oc2ccc(cc2Cl)[C@H]1O [vancomycin, reference compound] | – | – | – | – | – | – | – | – | MIC (bacterial strains; 3 h): > 10 µM; MIC (bacterial strains; Bacillus cereus, ATCC53522, 3 h): 2.5 µM (≈ 3.62 µg/mL); % Survival (CFU Assay) (B. cereus [4]; 0.08 uM): 97.67%; % Survival (CFU Assay) (B. cereus [4]; 0.16 uM): 113.37%; % Survival (CFU Assay) (B. cereus [4]; 0.32 uM): 79.59%; % Survival (CFU Assay) (B. cereus [4]; 0.63 uM): 63.73%; % Survival (CFU Assay) (B. cereus [4]; 1.25 uM): 9.06%; % Survival (CFU Assay) (B. cereus [4]; 2.5 uM): 1.09%
RRVSRRPMRRYRSRRPRRLV [Peptide G12.12] | 0.35 | 210 | 0.35 | 210 | – | YES | 210 | 0.35 | active in physiological salt concentrations (150 mM) and presence of serum (bacteria [2]): active in such conditions
RRVSRPPPRRYRSRRPRRLV [Peptide G12.19] | 0.75 | 220 | 0.35 | 210 | active | YES | 730 | 1.38 | –
